# Experiments:
# Details in all cases: treatment: drug alone; 5 days
# TK-10 [1] = experiment: GI50, drug alone; higher = less potent
# Procedure: (§1)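 Primary HTS: 8 RCC cell lines treated with 8 doses (up to 10 uM) of each library drug alone for 5 days; viability read by CellTiter-Glo and normalised to DMSO. GI50 was fitted with XLfit (4-parameter), AUC is the area under the dose-response curve, and minimum viability is the lowest fraction of DMSO viability across doses.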
# 769-P [2] = experiment: GI50, drug alone; higher = less potent
# Procedure: as §1
# SN12C [3] = experiment: GI50, drug alone; higher = less potent
# Procedure: as §1
# CAKI-1 [4] = experiment: GI50, drug alone; higher = less potent
# Procedure: as §1
# UO-31 [5] = experiment: GI50, drug alone; higher = less potent
# Procedure: as §1
# ACHN [6] = experiment: GI50, drug alone; higher = less potent
# Procedure: as §1
# A498 [7] = experiment: GI50, drug alone; higher = less potent
# Procedure: as §1
# 786-O [8] = experiment: GI50, drug alone; higher = less potent
# Procedure: as §1
# TK-10 [9] = experiment: AUC of dose-response viability curve, drug alone (arbitrary (AUC of normalised viability)); higher = less growth inhibition
# Procedure: as §1
# 769-P [10] = experiment: as above
# Procedure: as §1
# SN12C [11] = experiment: as above
# Procedure: as §1
# CAKI-1 [12] = experiment: as above
# Procedure: as §1
# UO-31 [13] = experiment: as above
# Procedure: as §1
# ACHN [14] = experiment: as above
# Procedure: as §1
# A498 [15] = experiment: as above
# Procedure: as §1
# 786-O [16] = experiment: as above
# Procedure: as §1
# TK-10 [17] = experiment: minimum viability across doses, drug alone, relative to DMSO (fraction); higher = less growth inhibition
# Procedure: as §1
# 769-P [18] = experiment: as above
# Procedure: as §1
# SN12C [19] = experiment: as above
# Procedure: as §1
# CAKI-1 [20] = experiment: as above
# Procedure: as §1
# UO-31 [21] = experiment: as above
# Procedure: as §1
# ACHN [22] = experiment: as above
# Procedure: as §1
# A498 [23] = experiment: as above
# Procedure: as §1
# 786-O [24] = experiment: as above
# Procedure: as §1
SMILES,"GI50, drug alone (TK-10 [1]) [nM]","GI50, drug alone (769-P [2]) [nM]","GI50, drug alone (SN12C [3]) [nM]","GI50, drug alone (CAKI-1 [4]) [nM]","GI50, drug alone (UO-31 [5]) [nM]","GI50, drug alone (ACHN [6]) [nM]","GI50, drug alone (A498 [7]) [nM]","GI50, drug alone (786-O [8]) [nM]",AUC of dose-response viability curve (TK-10 [9]),AUC of dose-response viability curve (769-P [10]),AUC of dose-response viability curve (SN12C [11]),AUC of dose-response viability curve (CAKI-1 [12]),AUC of dose-response viability curve (UO-31 [13]),AUC of dose-response viability curve (ACHN [14]),AUC of dose-response viability curve (A498 [15]),AUC of dose-response viability curve (786-O [16]),minimum viability across doses (TK-10 [17]),minimum viability across doses (769-P [18]),minimum viability across doses (SN12C [19]),minimum viability across doses (CAKI-1 [20]),minimum viability across doses (UO-31 [21]),minimum viability across doses (ACHN [22]),minimum viability across doses (A498 [23]),minimum viability across doses (786-O [24])
CNC(=O)CN1CCC(Oc2cc3c(Nc4cccc(Cl)c4F)ncnc3cc2OC)CC1 [AZD8931],1210,1150,> 10000,> 10000,> 10000,609,> 10000,> 10000,2.35,2.32,3.06,2.86,3.56,2.08,4.39,2.67,0.333,0.336,0.696,0.576,0.785,0.323,0.994,0.474
CN(C)C/C=C/C(=O)Nc1cc2c(Nc3ccc(F)c(Cl)c3)ncnc2cc1O[C@H]1CCOC1 [Afatinib (BIBW2992)],157,298,1340,673,2610,162,2860,1460,1.73,1.94,2.37,2.18,3.72,1.71,2.87,2.26,0.0844,0.0284,0.0794,0.047,0.00799,0.000546,0.00814,0.00665
S=C(NCc1ccc2c(c1)OCO2)N1CCN(c2ncnc3c2oc2ccccc23)CC1 [Amuvatinib (MP-470)],4830,> 10000,1560,> 10000,2680,2630,3140,686,2.82,3.25,2.63,3.74,3.73,2.87,3.63,2.22,0.28,0.527,0.0586,0.832,0.0651,0.113,0.103,0.104
S=C(NCc1ccc2c(c1)OCO2)N1CCN(c2ncnc3c2oc2ccccc23)CC1 [Amuvatinib (MP-470)_R2],2270,> 10000,1560,> 10000,2570,2420,4190,8.25,2.19,3.38,2.51,3.34,3.43,2.69,3.12,1.54,0.198,0.578,0.0284,0.749,0.0813,0.151,0.131,0.0372
CS(=O)(=O)O.N#CC1(c2ccc(NC(=O)c3cccnc3NCc3ccncc3)cc2)CCCC1 [Apatinib (YN968D1)],> 10000,> 10000,> 10000,> 10000,8330,> 10000,> 10000,> 10000,2.84,3.53,3.39,2.93,5.2,3.21,4.78,3.23,0.739,0.901,0.799,0.666,0.126,0.676,1.02,0.648
O=C1C(=O)N(Cc2ccc(Cl)c(Cl)c2)c2ccccc21 [Apoptosis Activator 2],8150,> 10000,4980,7680,> 10000,6950,> 10000,> 10000,2.82,3.51,2.93,3.53,4.31,2.87,4.06,1.07,0.439,0.654,0.193,0.342,0.818,0.339,0.506,0.00355
CCN1CCN(C(=O)Cc2ccc(Nc3ncc(F)c(Nc4ccc(C(=O)Nc5ccccc5Cl)cc4)n3)cc2)CC1 [Aurora A Inhibitor I],4410,2030,5340,980,9230,557,> 10000,234,2.7,2.75,2.95,2.49,3.82,2.17,4.05,1.75,0.481,0.0238,0.465,0.00638,0.327,0.062,0.871,0.0582
CNC(=O)c1ccccc1Sc1ccc2c(/C=C/c3ccccn3)n[nH]c2c1 [Axitinib],> 10000,6970,5600,2870,> 10000,4700,> 10000,> 10000,3.07,3.08,3.06,2.86,4.27,3.13,4.06,3.02,0.748,0.436,0.375,0.367,0.672,0.287,0.779,0.661
Cn1c(=O)n(-c2ccc(C(C)(C)C#N)cc2)c2c3cc(-c4cnc5ccccc5c4)ccc3ncc21 [BEZ235 (NVP-BEZ235)],489,301,297,294,152,223,303,150,2.11,2.02,1.96,1.99,1.69,1.86,2.03,1.74,0.157,0.165,0.189,0.0875,0.00561,0.0714,0.0718,0.139

# Source: the supplement of paper PMC8149375
